The record followed here is patent US6858638B2, “Substituted indazoles, compositions containing them, method of production and use” (Aventis Pharma S.A., priority 2002, dated 2005).

Common to all, as to assay type: biochemical
One assay deals with T1, human FAK (Homo sapiens, UniProt Q05397).
T1 construct: The complete cDNA of human FAK; made in house; host or cells: baculovirus expression system (vector pFastBac HTc)
Kind of assay: FAK autophosphorylation inhibition, time resolved fluorescence (HTRF) assay. As to conditions: 10 μM (values without asterisk); read-out: FAK % inhib at 10 μM. An outline of the steps:
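His-tagged full-length human FAK from baculovirus (6.6 µg/ml) self-phosphorylates with 15 µM ATP in HEPES pH 7.2, MgCl2, vanadate, 1 h at 37 °C. HTRF detection (Eu-anti-phosphotyrosine / XL665-anti-His), 665/620 nm ratio; % inhibition vs untreated control, duplicate mean.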
On the technique in general: Time-resolved FRET reads energy transfer from a long-lived donor to a nearby acceptor.

Another assay has as its target T2, human KDR enzyme (Homo sapiens, UniProt P35968).
T2 construct: The cytoplasmic domain of the human KDR enzyme; GST; made in house; host or cells: SF21 insect cells (baculovirus)
The experiment in a line: KDR substrate (PLCγ) phosphorylation, scintillation assay. The note with it: 10 μM; for inhibition at 10 µM: read-out: KDR % inhib at 10 μM. An outline of the steps: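 GST-fused human KDR cytoplasmic domain from SF21 cells (about 60% pure, 100 ng) phosphorylated 2 μg of GST-PLCγ SH2-SH3 fragment. The trigger solution held γ33P-ATP with 2 μM cold ATP, in MOPS buffer pH 7.2 with Mg2+, Mn2+, vanadate and NaF. Reactions ran 1 h at 37 °C, were stopped with EDTA and counted by scintillation; results are % inhibition versus the no-compound control.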

For the next assay, the target named is T3, Aurora2 kinase (Homo sapiens, UniProt O14965).
T3 construct: A complete recombinant Aurora2 enzyme; His tag (N); made in house; host or cells: E. coli
T3 sequence (O14965 1-403): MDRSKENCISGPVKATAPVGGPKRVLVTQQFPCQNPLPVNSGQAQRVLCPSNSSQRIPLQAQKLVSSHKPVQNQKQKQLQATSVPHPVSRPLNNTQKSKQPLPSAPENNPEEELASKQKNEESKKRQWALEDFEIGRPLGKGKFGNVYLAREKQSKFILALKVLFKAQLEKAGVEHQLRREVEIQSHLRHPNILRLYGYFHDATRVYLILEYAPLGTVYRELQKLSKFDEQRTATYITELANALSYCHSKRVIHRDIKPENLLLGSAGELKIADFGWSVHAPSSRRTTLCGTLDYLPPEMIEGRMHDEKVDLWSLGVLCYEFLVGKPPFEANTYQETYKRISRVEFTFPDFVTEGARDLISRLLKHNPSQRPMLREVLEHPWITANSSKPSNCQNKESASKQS
Kind of assay: Aurora2 kinase radioactivity scintillation assay using nickel chelate (NuMA substrate). The note with it: 10 μM; read-out: Aurora2 % inhib at 10 μM. An outline of the steps:
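His-tagged full-length Aurora2 (0.02 μM, E. coli) phosphorylating His-tagged NuMA C-terminal fragment (0.5 μM) with 1 μM ATP plus [33P]-ATP, 30 min at 37 °C, pH 7.5 Tris buffer with MgCl2. Nickel-chelate scintillation read; percent inhibition versus no-compound control.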

The target of assay [1] is T4, human IGF1R cytoplasmic domain (Homo sapiens, UniProt P08069).
T4 construct: The human IGF1R cytoplasmic domain was cloned; made in house; host or cells: SF21 insect cells (baculovirus)
The experiment in a line: IGF1R autophosphorylation inhibition, time resolved fluorescence (HTRF) assay. As to conditions: 10 μM; read-out: IGF1R % inhib at 10 μM. An outline of the steps: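 GST-tagged human IGF1R cytoplasmic domain from SF21 cells incubated with compound in 50 mM Hepes pH 7.5, 5 mM MnCl2, 50 mM NaCl, […] ATP. Autophosphorylation detected by HTRF (Eu-K anti-phosphotyrosine, XL665 anti-GST) after EDTA/KF stop; percentage inhibition versus no-compound control.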

T2 sequence (P35968 786-1356 limits assumed): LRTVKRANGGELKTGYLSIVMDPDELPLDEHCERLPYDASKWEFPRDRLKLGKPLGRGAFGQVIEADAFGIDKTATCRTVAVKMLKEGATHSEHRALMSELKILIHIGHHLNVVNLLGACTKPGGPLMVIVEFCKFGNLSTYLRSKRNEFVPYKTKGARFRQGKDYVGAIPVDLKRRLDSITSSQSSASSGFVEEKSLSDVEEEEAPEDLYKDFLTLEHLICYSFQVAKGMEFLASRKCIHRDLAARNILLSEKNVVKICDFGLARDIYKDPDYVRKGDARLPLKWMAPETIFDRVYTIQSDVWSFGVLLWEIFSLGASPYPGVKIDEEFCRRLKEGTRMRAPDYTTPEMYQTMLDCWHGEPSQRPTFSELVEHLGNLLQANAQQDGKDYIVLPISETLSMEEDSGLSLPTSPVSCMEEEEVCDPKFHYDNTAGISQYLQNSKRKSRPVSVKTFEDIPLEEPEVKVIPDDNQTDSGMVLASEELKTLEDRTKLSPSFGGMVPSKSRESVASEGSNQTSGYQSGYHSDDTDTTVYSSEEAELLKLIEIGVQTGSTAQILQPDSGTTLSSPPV
T4 sequence (P08069 960-1367 limits assumed): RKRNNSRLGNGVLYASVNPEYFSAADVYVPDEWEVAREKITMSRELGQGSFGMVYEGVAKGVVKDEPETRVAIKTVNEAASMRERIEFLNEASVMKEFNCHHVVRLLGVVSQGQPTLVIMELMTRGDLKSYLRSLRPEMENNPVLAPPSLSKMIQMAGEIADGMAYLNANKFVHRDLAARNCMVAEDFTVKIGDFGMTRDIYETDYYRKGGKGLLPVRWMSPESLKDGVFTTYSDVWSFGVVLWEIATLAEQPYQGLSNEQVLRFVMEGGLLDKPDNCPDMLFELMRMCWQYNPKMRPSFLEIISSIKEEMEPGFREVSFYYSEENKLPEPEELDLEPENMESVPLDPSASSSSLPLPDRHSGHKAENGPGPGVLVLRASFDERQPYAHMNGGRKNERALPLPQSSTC
T1 sequence (Q05397 whole entry): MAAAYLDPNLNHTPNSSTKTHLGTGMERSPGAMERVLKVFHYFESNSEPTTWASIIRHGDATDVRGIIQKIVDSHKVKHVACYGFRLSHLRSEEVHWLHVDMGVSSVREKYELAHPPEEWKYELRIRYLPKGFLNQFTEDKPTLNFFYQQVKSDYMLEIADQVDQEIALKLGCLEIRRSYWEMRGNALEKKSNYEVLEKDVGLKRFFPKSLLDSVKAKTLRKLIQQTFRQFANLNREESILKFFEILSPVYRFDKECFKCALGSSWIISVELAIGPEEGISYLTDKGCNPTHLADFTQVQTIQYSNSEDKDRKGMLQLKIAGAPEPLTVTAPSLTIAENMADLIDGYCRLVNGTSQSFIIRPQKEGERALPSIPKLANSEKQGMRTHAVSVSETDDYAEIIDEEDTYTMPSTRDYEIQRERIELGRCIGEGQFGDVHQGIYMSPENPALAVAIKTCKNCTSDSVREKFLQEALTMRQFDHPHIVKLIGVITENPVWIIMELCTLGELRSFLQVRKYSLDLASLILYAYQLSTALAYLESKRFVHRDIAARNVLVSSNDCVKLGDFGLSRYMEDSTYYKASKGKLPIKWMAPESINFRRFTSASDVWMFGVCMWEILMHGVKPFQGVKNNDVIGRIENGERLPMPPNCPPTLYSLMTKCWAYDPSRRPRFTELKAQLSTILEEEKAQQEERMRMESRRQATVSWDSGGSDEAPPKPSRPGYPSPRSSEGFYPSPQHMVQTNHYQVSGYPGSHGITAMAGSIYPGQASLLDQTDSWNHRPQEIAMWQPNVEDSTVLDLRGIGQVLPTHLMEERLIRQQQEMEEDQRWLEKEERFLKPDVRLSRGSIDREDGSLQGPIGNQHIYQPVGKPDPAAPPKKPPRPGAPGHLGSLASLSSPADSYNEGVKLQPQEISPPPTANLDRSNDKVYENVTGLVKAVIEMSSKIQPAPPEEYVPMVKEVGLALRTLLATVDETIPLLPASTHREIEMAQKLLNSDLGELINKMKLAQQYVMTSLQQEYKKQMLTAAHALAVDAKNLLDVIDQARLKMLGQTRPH

With `CS(=O)(=O)c1ccccc1S(=O)(=O)Nc1ccc2[nH]nc(-c3ccccc3-c3ccccc3)c2c1` [Example 173, N-(3-Biphenyl-2-yl-1H-indazol-5-yl)-2-methanesulfonyl-benzenesulfonamide], the inhibition at 10 µM was determined as 62% on human FAK, 32% on human KDR enzyme, 77% at Aurora2 kinase and 27% in assay [1].
With `CS(=O)(=O)c1ccccc1S(=O)(=O)Nc1ccc2[nH]nc(-c3cccs3)c2c1` [Example 174, 2-Methanesulfonyl-N-(3-thiophen-2-yl-1H-indazol-5-yl)-benzenesulfonamide], the values for the inhibition at 10 µM (on human FAK; at Aurora2 kinase; in assay [1]) were 100%, 93% and 65%, respectively. Besides, on human KDR enzyme, the “KDR % inhib at 10 μM” value is 53%.
With `CS(=O)(=O)c1ccccc1S(=O)(=O)Nc1ccc2[nH]nc(-c3cccc(C(F)(F)F)c3)c2c1` [Example 175, N-[3-(3-Trifluoromethylphenyl)-1H-indazol-5-yl]-2-methanesulfonyl-benzenesulfonamide], the inhibition at 10 µM stood at 90% on human FAK, 68% on human KDR enzyme, 88% at Aurora2 kinase and 81% in assay [1].
Take `CS(=O)(=O)c1ccccc1S(=O)(=O)Nc1ccc2[nH]nc(-c3ccc(C(F)(F)F)cc3)c2c1` [Example 176, N-[3-(4-Trifluoromethylphenyl)-1H-indazol-5-yl]-2-methanesulfonyl-benzenesulfonamide]: the inhibition at 10 µM amounted to 66% on human FAK, 70% at human KDR enzyme, 88% at Aurora2 kinase and 83% in assay [1].
As to `CS(=O)(=O)c1ccccc1S(=O)(=O)Nc1ccc2[nH]nc(-c3cccc(Cl)c3)c2c1` [Example 177, N-[3-(3-Chlorophenyl)-1H-indazol-5-yl]-2-methanesulfonyl-benzenesulfonamide], the inhibition at 10 µM turned out to be 97% on human FAK, 71% on human KDR enzyme, 95% at Aurora2 kinase and 80% in assay [1].
On to `COc1cccc(-c2n[nH]c3ccc(NS(=O)(=O)c4ccccc4S(C)(=O)=O)cc23)c1` [Example 178, 2-Methanesulfonyl-N-[3-(3-methoxyphenyl)-1H-indazol-5-yl]benzenesulfonamide], for which the inhibition at 10 µM amounted to 95% at human FAK, 44% at human KDR enzyme, 90% at Aurora2 kinase and 67% in assay [1].
In the same order, the values of `Cc1cc(C)cc(-c2n[nH]c3ccc(NS(=O)(=O)c4ccccc4S(C)(=O)=O)cc23)c1` [Example 179, 2-Methanesulfonyl-N-[3-(3,5-dimethylphenyl)-1H-indazol-5-yl]benzenesulfonamide] are 96%, 49%, 93% and 72%.
Take `CS(=O)(=O)c1ccccc1S(=O)(=O)Nc1ccc2[nH]nc(-c3cc4ccccc4o3)c2c1` [Example 180, N-(3-Benzofuran-2-yl-1H-indazol-5-yl)-2-methanesulfonyl-benzenesulfonamide]: the inhibition at 10 µM on human FAK amounted to 95%; on human KDR enzyme it was 29%; on Aurora2 kinase it was 99%; in assay [1], 93%.
The matching figures for `CS(=O)(=O)c1ccccc1S(=O)(=O)Nc1ccc2[nH]nc(-c3ccc(Cl)s3)c2c1` [Example 181, N-[3-(5-Chlorothiophen-2-yl)-1H-indazol-5-yl]-2-methanesulfonyl-benzenesulfonamide]: 83%, 49%, 94% and 55%.
Consider `CS(=O)(=O)c1ccccc1S(=O)(=O)Nc1ccc2[nH]nc(-c3cccc(F)c3)c2c1` [Example 182, N-[3-(3-Fluorophenyl)-1H-indazol-5-yl]-2-methanesulfonyl-benzenesulfonamide], for which the inhibition at 10 µM at human FAK is 96%; at human KDR enzyme, 68%; on Aurora2 kinase it was 94%; in assay [1], 69%.
